From ChEMBL document CHEMBL3864160, “Discovery of fluorobenzimidazole HCV NS5A inhibitors” (Bioorg Med Chem Lett, 2016)
pEC50: −log10 of the molar value.

Columns and labels:
[1] = Inhibition of Hepatitis C virus genotype 6a replicon NS5A transfected in human HuH7 cells assessed as decrease in replication of viral replicon after 4 days by luciferase reporter gene assay; type: cell-based, Hepatitis C virus subtype 6a; settings: Huh-7, 96 h
[2] = Inhibition of Hepatitis C virus genotype 1b Con1 replicon NS5A transfected in human HuH7 cells assessed as decrease in replication of viral replicon after 4 days by luciferase reporter gene assay; type: cell-based, Hepatitis C virus (isolate Con1); settings: Huh-7, 96 h
[3] = Inhibition of Hepatitis C virus genotype 4a replicon NS5A transfected in human HuH7 cells assessed as decrease in replication of viral replicon after 4 days by luciferase reporter gene assay; type: cell-based, Hepatitis C virus subtype 4a; settings: Huh-7, 96 h
[4] = Inhibition of Hepatitis C virus genotype 2b replicon NS5A transfected in human HuH7 cells assessed as decrease in replication of viral replicon after 4 days by luciferase reporter gene assay; type: cell-based, Hepatitis C virus subtype 2b; settings: Huh-7, 96 h
[5] = Inhibition of Hepatitis C virus genotype 3a replicon NS5A transfected in human HuH7 cells assessed as decrease in replication of viral replicon after 4 days by luciferase reporter gene assay; type: cell-based, Hepatitis C virus subtype 3a; settings: Huh-7, 96 h
[6] = Inhibition of Hepatitis C virus genotype 2a replicon NS5A transfected in human HuH7 cells assessed as decrease in replication of viral replicon after 4 days by luciferase reporter gene assay; type: cell-based, Hepatitis C virus subtype 2a; settings: Huh-7, 96 h
[7] = Inhibition of Hepatitis C virus genotype 1a H77 replicon NS5A transfected in human HuH7 cells assessed as decrease in replication of viral replicon after 4 days by luciferase reporter gene assay; type: cell-based, Hepatitis C virus (isolate H77); settings: Huh-7, 96 h
[8] = AUC in CD1 mouse at 15 mg/kg, po after 0.25 to 24 hrs; type: ADME, organism-based; set-up: time lower 0.25 hr, dose 15 mg/kg, time upper 24 hr, route oral; settings: in vivo
[9] = Cmax in CD1 mouse at 15 mg/kg, po after 0.25 to 24 hrs; type: ADME, organism-based; set-up: dose 15 mg/kg, route oral; settings: in vivo
[10] = Cmax in CD1 mouse at 3 mg/kg, po after 0.25 to 24 hrs; type: ADME, organism-based; set-up: dose 3 mg/kg, route oral; settings: in vivo
[11] = Half life in CD1 mouse at 3 mg/kg, po after 0.25 to 24 hrs; type: ADME, organism-based; settings: in vivo
[12] = Half life in CD1 mouse at 15 mg/kg, po after 0.25 to 24 hrs; type: ADME, organism-based; settings: in vivo
[13] = AUC in CD1 mouse at 3 mg/kg, po after 0.25 to 24 hrs; type: ADME, organism-based; set-up: time upper 24 hr, dose 3 mg/kg, time lower 0.25 hr, route oral; settings: in vivo
[14] = Inhibition of Hepatitis C virus genotype 1a H77 replicon NS5A transfected in human HuH7 cells assessed as decrease in replication of viral replicon in presence of 40% human plasma after 4 days by luciferase reporter gene assay; type: cell-based, Hepatitis C virus (isolate H77); settings: Huh-7, Plasma, 96 h
[15] = Inhibition of Hepatitis C virus genotype 1b Con1 replicon NS5A transfected in human HuH7 cells assessed as decrease in replication of viral replicon in presence of 40% human plasma after 4 days by luciferase reporter gene assay; type: cell-based, Hepatitis C virus (isolate Con1); settings: Huh-7, Plasma, 96 h

pEC50 [1]	pEC50 [2]	pEC50 [3]	pEC50 [4]	pEC50 [5]	pEC50 [6]	pEC50 [7]	AUC [8] [ng·h/mL]	Cmax [9] [ng/mL]	Cmax [10] [ng/mL]	half-life [11] [h]	half-life [12] [h]	AUC [13] [ng·h/mL]	pEC50 [14]	pEC50 [15]	SMILES
7.67	11.22	10.31	8.35	7.36	7.30	7.92	–	–	–	–	–	–	–	–	COC(=O)N[C@H](C(=O)N1CCC[C@H]1c1nc2cc(-c3ccc(-c4cc5nc([C@@H]6CCCN6C(=O)[C@@H](NC(=O)OC)C(C)C)[nH]c5cc4C(F)(F)F)cc3)c(C(F)(F)F)cc2[nH]1)C(C)C
< 7.00	10.03	9.26	7.05	< 7.00	< 7.00	7.59	–	–	–	–	–	–	–	–	COC(=O)N[C@H](C(=O)N1CCC[C@H]1c1nc2cc(-c3ccc(-c4cc5nc([C@@H]6CCCN6C(=O)[C@@H](NC(=O)OC)C(C)C)[nH]c5cc4OC)cc3)c(OC)cc2[nH]1)C(C)C
–	–	–	–	–	–	–	36200	3180	630	4.4	4.8	5790	–	–	COC(=O)N[C@H](C(=O)N1CCC[C@H]1c1nc2cc([C@H]3CC[C@H](c4cc5[nH]c([C@@H]6CCCN6C(=O)[C@@H](NC(=O)OC)C(C)C)nc5cc4F)N3c3ccc(C(C)(C)C)cc3)c(F)cc2[nH]1)C(C)C
9.23	10.89	11.00	10.42	10.43	8.74	10.47	–	–	–	–	–	–	8.73	9.14	COC(=O)N[C@H](C(=O)N1CCC[C@H]1c1nc2c(Cl)c([C@H]3CC[C@H](c4ccc5[nH]c([C@@H]6CCCN6C(=O)[C@@H](NC(=O)OC)C(C)C)nc5c4Cl)N3c3ccc(C(C)(C)C)cc3)ccc2[nH]1)C(C)C
–	9.55	8.74	8.84	8.17	< 7.00	8.95	–	–	–	–	–	–	–	–	COC(=O)N[C@H](C(=O)N1CCC[C@H]1c1nc2nc(-c3ccc(-c4ccc5[nH]c([C@@H]6CCCN6C(=O)[C@@H](NC(=O)OC)C(C)C)nc5n4)cc3)ccc2[nH]1)C(C)C
–	8.81	8.96	8.19	< 7.00	< 7.00	8.25	–	–	–	–	–	–	–	–	COC(=O)N[C@H](C(=O)N1CCC[C@H]1c1nc2cc(-c3ccc(-c4cnc5[nH]c([C@@H]6CCCN6C(=O)[C@@H](NC(=O)OC)C(C)C)nc5c4)cc3)cnc2[nH]1)C(C)C
–	8.13	< 7.00	< 7.00	< 7.00	< 7.00	< 7.00	–	–	–	–	–	–	–	–	COC(=O)N[C@H](C(=O)N1CCC[C@H]1c1cc2nc(-c3ccc(-c4ccc5[nH]c([C@@H]6CCCN6C(=O)[C@@H](NC(=O)OC)C(C)C)cc5n4)cc3)ccc2[nH]1)C(C)C
8.15	10.85	10.85	9.49	9.98	7.55	10.42	–	–	–	–	–	–	–	–	COC(=O)N[C@H](C(=O)N1CCC[C@H]1c1nc2c(C)c(-c3ccc(-c4ccc5[nH]c([C@@H]6CCCN6C(=O)[C@@H](NC(=O)OC)C(C)C)nc5c4C)cc3)ccc2[nH]1)C(C)C
7.64	10.51	9.39	8.41	7.76	< 7.00	9.01	–	–	–	–	–	–	–	–	COC(=O)N[C@H](C(=O)N1CCC[C@H]1c1nc2cc(-c3ccc(-c4cc(C)c5[nH]c([C@@H]6CCCN6C(=O)[C@@H](NC(=O)OC)C(C)C)nc5c4)cc3)cc(C)c2[nH]1)C(C)C
9.94	11.00	11.15	11.05	10.70	9.21	10.66	–	–	–	–	–	–	9.08	9.68	COC(=O)N[C@H](C(=O)N1CCC[C@H]1c1nc2c(F)c([C@H]3CC[C@H](c4ccc5[nH]c([C@@H]6CCCN6C(=O)[C@@H](NC(=O)OC)C(C)C)nc5c4F)N3c3ccc(C(C)(C)C)cc3)ccc2[nH]1)C(C)C
–	10.66	10.21	10.22	8.95	7.12	9.57	–	–	–	–	–	–	–	–	COC(=O)N[C@H](C(=O)N1CCC[C@H]1c1nc2ccc(-c3ccc(-c4ccc5nc([C@@H]6CCCN6C(=O)[C@@H](NC(=O)OC)C(C)C)[nH]c5c4)cc3)cc2[nH]1)C(C)C
8.32	10.89	9.48	9.65	9.19	7.40	9.89	–	–	–	–	–	–	–	–	COC(=O)N[C@H](C(=O)N1CCC[C@H]1c1nc2c(F)c(-c3ccc(-c4ccc5[nH]c([C@@H]6CCCN6C(=O)[C@@H](NC(=O)OC)C(C)C)nc5c4F)cc3)ccc2[nH]1)C(C)C
< 7.00	10.02	9.79	7.25	7.03	< 7.00	9.20	–	–	–	–	–	–	–	–	COC(=O)N[C@H](C(=O)N1CCC[C@H]1c1nc2cc(-c3ccc(-c4cc(OC)c5[nH]c([C@@H]6CCCN6C(=O)[C@@H](NC(=O)OC)C(C)C)nc5c4)cc3)cc(OC)c2[nH]1)C(C)C
7.76	10.80	10.11	9.66	8.84	7.37	9.29	–	–	–	–	–	–	–	–	COC(=O)N[C@H](C(=O)N1CCC[C@H]1c1nc2c(F)c(-c3ccc(-c4c(F)cc5[nH]c([C@@H]6CCCN6C(=O)[C@@H](NC(=O)OC)C(C)C)nc5c4F)cc3)c(F)cc2[nH]1)C(C)C
< 8.00	9.97	8.72	< 8.00	< 7.00	< 7.00	7.64	–	–	–	–	–	–	–	–	COC(=O)N[C@H](C(=O)N1CCC[C@H]1c1nc2cc(-c3ccc(-c4cc(C(F)(F)F)c5[nH]c([C@@H]6CCCN6C(=O)[C@@H](NC(=O)OC)C(C)C)nc5c4)cc3)cc(C(F)(F)F)c2[nH]1)C(C)C
< 7.00	9.71	8.92	7.11	7.81	< 7.00	8.93	–	–	–	–	–	–	–	–	COCc1c(-c2ccc(-c3ccc4[nH]c([C@@H]5CCCN5C(=O)[C@@H](NC(=O)OC)C(C)C)nc4c3COC)cc2)ccc2[nH]c([C@@H]3CCCN3C(=O)[C@@H](NC(=O)OC)C(C)C)nc12
9.56	> 10.52	11.10	> 10.52	9.35	7.51	10.12	–	–	–	–	–	–	–	–	COC(=O)N[C@H](C(=O)N1CCC[C@H]1c1nc2cc(-c3ccc(-c4cc5nc([C@@H]6CCCN6C(=O)[C@@H](NC(=O)OC)C(C)C)[nH]c5cc4F)cc3)c(F)cc2[nH]1)C(C)C
9.88	11.00	11.30	10.60	10.70	9.23	11.00	–	–	–	–	–	–	9.28	9.25	COC(=O)N[C@H](C(=O)N1CCC[C@H]1c1nc2c(C)c([C@H]3CC[C@H](c4ccc5[nH]c([C@@H]6CCCN6C(=O)[C@@H](NC(=O)OC)C(C)C)nc5c4C)N3c3ccc(C(C)(C)C)cc3)ccc2[nH]1)C(C)C
8.49	11.10	> 10.52	9.83	8.35	8.04	8.83	–	–	–	–	–	–	–	–	COC(=O)N[C@H](C(=O)N1CCC[C@H]1c1nc2cc(-c3ccc(-c4cc5nc([C@@H]6CCCN6C(=O)[C@@H](NC(=O)OC)C(C)C)[nH]c5cc4C)cc3)c(C)cc2[nH]1)C(C)C
–	> 10.52	10.40	9.29	8.19	7.86	9.24	–	–	–	–	–	–	–	–	COC(=O)N[C@H](C(=O)N1CCC[C@H]1c1nc2cc(-c3ccc(-c4cc(F)c5[nH]c([C@@H]6CCCN6C(=O)[C@@H](NC(=O)OC)C(C)C)nc5c4)cc3)cc(F)c2[nH]1)C(C)C
